What was measured:
BBB-PAMPA = format: in vitro ADME; details: 50 μM
Protocol: Commercially available Double-Sink PAMPA (Pion® Double sink) assay was performed using a two compartment 96-well microtiter plate and protocols specified by the manufacturer. […] Stock solutions of controls and YIAD002 were dissolved in DMSO (10 mM) and subsequently diluted to 200-fold in pION buffer (pH 7.4) to 50 μM. The donor plate of the PAMPA sandwich was loaded with 50 μM solutions, and after wetting the artificial membrane with BBB lipid solution, the acceptor plate was loaded with acceptor sink buffer. Then, the acceptor plate was placed on the donor plate and incubated at 25°C for 4 h. Compound concentration in the reference, donor, and acceptor plates were measured on a UV plate.

[1] = Microsomal stability, mouse; format: in vitro ADME; details: 1 μM, 30 min, 37°C
Protocol: To evaluate the rate of drug metabolism, we tested YIAD002 stability in liver microsomes of human, rat, and mouse. Microsomal concentration was 0.5 mg/ml in 0.1 M phosphate buffer (pH 7.4). 1 μM of YIAD002 was added to microsome solutions and was prewarmed at 37°C for 5 min. NADPH-regenerating solution was added to microsomes and incubated at 37°C for 30 min. At the end of incubation, acetonitrile with chlorpropamide was added to stop reactions and microsomal solutions were centrifuged at 14,000 rpm at 4°C for 5 min. For LC-MS/MS analysis, supernatants were injected on a Kinetex C18 column (2.1 × 100 mm, 2.6 μm particle size, Phenomenex, USA). The composition of the mobile phase was 0.1% formic acid in water (A) and 0.1% formic acid in acetonitrile (B).

APP/PS1 mice [2] = experiment: Morris water maze in APP/PS1 mice; format: in vivo, mouse; details: 30 mg/kg/day oral, 10 weeks, vs vehicle
Protocol: (§1) To test whether YIAD002 could reduce amyloid plaques in another AD mouse model, APP/PS1 transgenic mice (n = 24) and wildtype mice (n = 5) were assessed at the age of 7.5 months. YIAD002 was dissolved in PBS (0.5% methylcellulose) at two different concentrations (10 and 30 mg/kg/day) and administrated daily to APP/PS1 mice (n = 8 for each group) via oral gavage for 8 weeks. As a control, vehicle solutions were orally administrated to littermate APP/PS1 mice (n = 8) and wildtype mice (n = 5).
The Morris water maze was used to evaluate whether YIAD002 could improve cognitive function in APP/PS1 mice during the tenth week of administration. A circular stainless pool with a radius of 90 cm and height of 50 cm with water kept at 22±1°C. Nontoxic opaque white paint was used to hide a platform with a radius of 9 cm hidden 1 cm beneath the surface. The training phase consisted of 5 days, in which the mice were given 60 s to find the platform. On circumstances where a mouse could not reach the platform within 60 s, it was placed on the platform where it had to remain for 10 s. The probe test took place on the sixth day, in which the platform was removed and the mice swam freely for 60 s. Swimming trajectories were recorded and analyzed using SMART VIDEO TRACKING Software (Panlab, USA). To assess cognitive improvement in YIAD002-treated mice groups, latency to target (seconds) and the number of target crossings were compared to vehicle-treated APP/PS1 mice. After the probe trial, the mice were sacrificed and the collected brains were fixed in formalin.

APP/PS1 mice [3] = experiment: 6E10 immunohistochemical staining of amyloid plaques in APP/PS1 mice; format: in vivo, mouse; details: YIAD002-treated APP/PS1 mice vs vehicle
Protocol: as §1
Formalin-fixed APP/PS1 mice brains were infiltrated with paraffin using a tissue processor (LEICA ASP300S, Germany). Blocks of tissues were produced with a tissue embedding center and sectioned into thin slices (4 μm), which were mounted onto glass slides. To prepare for 6E10 staining, slides were deparaffinized, rehydrated, and blocked with 0.03% H2O2 to remove endogenous peroxidase. For antigen retrieval, slides were boiled in Tris/EDTA solution (pH 9.0) using a pressure cooker. Unspecific binding was blocked through incubation in 4% BSA at RT for 30 min. Slides were immunolabeled with anti-6E10 antibody (1:2000, Novus Biologicals NBP2-62566) at RT for 1 h and HRP-labeled secondary antibody (Dako K4003) for 30 min and subsequently stained with DAB (3,3′-Diaminobenzidine) and counterstained with Mayer’s hematoxylin. Stained slides were scanned using ZEISS Axio scan.Z1 microscope. Amyloid plaques were quantified using Image-J software (NIH).

[4] = biological target: T1, Aβ-Aβ interactions (Aβ(1–42) fragments) (Homo sapiens, UniProt P05067); experiment: Mapping assay of Aβ(1–42) with peptide fragments; format: biochemical; details: YIAD002 500 μM, 24 h, Flamma 552-labeled Aβ(1–42) 10 μM, compared to full-length Aβ(1–42) control
T1 construct: we added monomeric Aβ(1–42) (10 μM) labeled with fluorescent dye Flamma 552 to each well
Protocol: Aβ fragments made up of six overlapping amino acid residues and a cysteine residue at the C-terminal were acquired by Fmoc solid phase peptide synthesis as previously described. Full length Aβ(1–42) with an additional cysteine residue at the C-terminal was used for comparison. The peptides were dissolved in DMSO ([…]) and diluted in binding buffer (0.1 M sodium phosphate, 0.15 M sodium chloride, 10 mM EDTA; pH 7.2) to prepare 50 μg/mL peptide solutions. To immobilize the Aβ fragments and monomers to maleimide-activated microplates, 100 μL of peptide solutions (50 μg/mL) was added and incubated at RT for 2 h while shaking. Cysteine solution (10 μg/mL with binding buffer) was added to cap unreacted maleimide groups. […] To define the fluorescence baseline for each well, fluorescence intensity was measured at 555 (excitation) and 580 (emission). YIAD002 (500 μM in binding buffer, 7.5% DMSO) was added to each well and incubated at RT for 24 h while shaking. Fluorescence intensity was remeasured at 555 (excitation) and 580 (emission) and baseline fluorescence was subtracted to quantify the change in fluorescence intensity caused by YIAD002. The plate was washed with 200 μL of wash buffer (0.1 M sodium phosphate, 0.15 M sodium chloride, 0.05% Tween®-20 Detergent; pH 7.2) per well three times in between steps.

T1 sequence (P05067 672-713): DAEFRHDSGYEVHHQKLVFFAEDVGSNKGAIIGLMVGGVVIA

CCC(C)(C)c1ccc(OCC(O)CN2CCCC2)c(C(C)(C)CC)c1.Cl (stereo not drawn) [YIAD002, 1-(3-(2,4-Di-tert-pentylphenoxy)-2-hydroxypropyl)pyrrolidin-1-ium chloride]
BBB permeability class (BBB-PAMPA; classification ranges ref 25): high BBB permeability
Papp at 4 h, 50 μM (BBB-PAMPA; PAMPA, pH 7.4, 25°C, 4 h, read-out: Effective permeability coefficient Pe): 36.8 ×10⁻⁶ cm/s
Remaining compound in mouse microsomes [1]: 14.2%
Escape latency after 5 days of training (APP/PS1 mice [2]; 7.5-month-old APP/PS1 mice): significantly shortened
Latency to target, probe trial (APP/PS1 mice [2]; APP/PS1 mice): significantly shorter
Target crossings, probe trial (APP/PS1 mice [2]; APP/PS1 mice): increased target crossings
Number of plaques, cortex (APP/PS1 mice [3]): significantly reduced
Plaque size, hippocampus (APP/PS1 mice [3]): significantly reduced
Size of plaques, cortex (APP/PS1 mice [3]): significantly reduced
Area of 6E10-stained plaques, whole brain (APP/PS1 mice [3]; dose not given): reduced
Number of 6E10-stained plaques, whole brain (APP/PS1 mice [3]; dose not given): reduced
Dissociation of Aβ-Aβ interactions at immobilised Aβ fragments [4]: markedly dissociated Aβ-Aβ interactions at residues Aβ(16–21), KLVFFA, and Aβ(32–37), IGLMVG

— PMC9706920, “Aryloxypropanolamine targets amyloid aggregates and reverses Alzheimer-like phenotypes in Alzheimer mouse models” (Alzheimer's Research & Therapy, 2022)
